Columns and labels:
PIK3CG = PIK3CG (Homo sapiens, UniProt P48736); test: biochemical; settings: read-out: %Ctrl @ 2000nM
NEK11 = NEK11 (Homo sapiens, UniProt Q8NG66); test: biochemical; settings: read-out: %Ctrl @ 2000nM
CDKL5 = CDKL5 (Homo sapiens, UniProt O76039); test: biochemical; settings: read-out: %Ctrl @ 2000nM
[1] = target: JAK2(JH1domain-catalytic) (Homo sapiens, UniProt O60674); test: biochemical; settings: read-out: %Ctrl @ 2000nM
STK39 = STK39 (Homo sapiens, UniProt Q9UEW8); test: biochemical; settings: read-out: %Ctrl @ 2000nM
CLK2 = CLK2 (Homo sapiens, UniProt P49760); test: biochemical; settings: read-out: %Ctrl @ 2000nM
BMPR2 = BMPR2 (Homo sapiens, UniProt Q13873); test: biochemical; settings: read-out: %Ctrl @ 2000nM
PIK3CA = PIK3CA (Homo sapiens, UniProt P42336); test: biochemical; settings: read-out: %Ctrl @ 2000nM
Chain of PIK3CA (P42336 whole entry): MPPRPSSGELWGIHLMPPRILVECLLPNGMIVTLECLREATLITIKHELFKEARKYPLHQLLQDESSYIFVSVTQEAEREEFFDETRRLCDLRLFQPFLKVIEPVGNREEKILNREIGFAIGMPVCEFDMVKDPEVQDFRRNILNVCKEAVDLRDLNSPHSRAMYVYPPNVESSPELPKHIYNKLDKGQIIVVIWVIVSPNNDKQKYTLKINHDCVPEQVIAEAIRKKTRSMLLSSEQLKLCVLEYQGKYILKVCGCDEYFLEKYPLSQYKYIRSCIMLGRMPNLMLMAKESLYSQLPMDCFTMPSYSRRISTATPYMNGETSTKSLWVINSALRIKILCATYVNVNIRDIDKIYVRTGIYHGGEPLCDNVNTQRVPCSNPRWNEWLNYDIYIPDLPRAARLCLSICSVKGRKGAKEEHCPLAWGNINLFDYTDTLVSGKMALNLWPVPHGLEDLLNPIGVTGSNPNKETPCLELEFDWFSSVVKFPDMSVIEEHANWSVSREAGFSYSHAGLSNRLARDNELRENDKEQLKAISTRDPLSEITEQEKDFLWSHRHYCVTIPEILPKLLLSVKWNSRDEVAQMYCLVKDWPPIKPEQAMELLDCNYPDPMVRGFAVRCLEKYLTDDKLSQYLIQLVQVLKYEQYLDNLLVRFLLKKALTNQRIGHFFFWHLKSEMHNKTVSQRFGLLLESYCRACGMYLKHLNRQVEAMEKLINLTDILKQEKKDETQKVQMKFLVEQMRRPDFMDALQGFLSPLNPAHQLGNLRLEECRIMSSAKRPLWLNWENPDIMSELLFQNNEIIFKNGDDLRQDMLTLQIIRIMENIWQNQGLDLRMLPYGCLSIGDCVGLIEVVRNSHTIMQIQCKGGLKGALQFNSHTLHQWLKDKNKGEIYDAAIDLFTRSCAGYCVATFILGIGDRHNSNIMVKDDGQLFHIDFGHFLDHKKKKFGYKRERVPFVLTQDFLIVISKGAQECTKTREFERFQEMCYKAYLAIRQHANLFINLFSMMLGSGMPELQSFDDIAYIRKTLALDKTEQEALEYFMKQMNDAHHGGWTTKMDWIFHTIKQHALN

[2] = target: ABL1(T315I)-nonphosphorylated (Homo sapiens, UniProt P00519, T315I); test: biochemical; settings: read-out: %Ctrl @ 2000nM
STK16 = STK16 (Homo sapiens, UniProt O75716); test: biochemical; settings: read-out: %Ctrl @ 2000nM
EGFR(S752-I759del) = EGFR(S752-I759del) (Homo sapiens, UniProt P00533, DEL752-759); test: biochemical; settings: read-out: %Ctrl @ 2000nM
GSK3B = GSK3B (Homo sapiens, UniProt P49841); test: biochemical; settings: read-out: %Ctrl @ 2000nM
MRCKB = MRCKB (Homo sapiens, UniProt Q9Y5S2); test: biochemical; settings: read-out: %Ctrl @ 2000nM
IGF1R = IGF1R (Homo sapiens, UniProt P08069); test: biochemical; settings: read-out: %Ctrl @ 2000nM
Chain of IGF1R (P08069 31-1367): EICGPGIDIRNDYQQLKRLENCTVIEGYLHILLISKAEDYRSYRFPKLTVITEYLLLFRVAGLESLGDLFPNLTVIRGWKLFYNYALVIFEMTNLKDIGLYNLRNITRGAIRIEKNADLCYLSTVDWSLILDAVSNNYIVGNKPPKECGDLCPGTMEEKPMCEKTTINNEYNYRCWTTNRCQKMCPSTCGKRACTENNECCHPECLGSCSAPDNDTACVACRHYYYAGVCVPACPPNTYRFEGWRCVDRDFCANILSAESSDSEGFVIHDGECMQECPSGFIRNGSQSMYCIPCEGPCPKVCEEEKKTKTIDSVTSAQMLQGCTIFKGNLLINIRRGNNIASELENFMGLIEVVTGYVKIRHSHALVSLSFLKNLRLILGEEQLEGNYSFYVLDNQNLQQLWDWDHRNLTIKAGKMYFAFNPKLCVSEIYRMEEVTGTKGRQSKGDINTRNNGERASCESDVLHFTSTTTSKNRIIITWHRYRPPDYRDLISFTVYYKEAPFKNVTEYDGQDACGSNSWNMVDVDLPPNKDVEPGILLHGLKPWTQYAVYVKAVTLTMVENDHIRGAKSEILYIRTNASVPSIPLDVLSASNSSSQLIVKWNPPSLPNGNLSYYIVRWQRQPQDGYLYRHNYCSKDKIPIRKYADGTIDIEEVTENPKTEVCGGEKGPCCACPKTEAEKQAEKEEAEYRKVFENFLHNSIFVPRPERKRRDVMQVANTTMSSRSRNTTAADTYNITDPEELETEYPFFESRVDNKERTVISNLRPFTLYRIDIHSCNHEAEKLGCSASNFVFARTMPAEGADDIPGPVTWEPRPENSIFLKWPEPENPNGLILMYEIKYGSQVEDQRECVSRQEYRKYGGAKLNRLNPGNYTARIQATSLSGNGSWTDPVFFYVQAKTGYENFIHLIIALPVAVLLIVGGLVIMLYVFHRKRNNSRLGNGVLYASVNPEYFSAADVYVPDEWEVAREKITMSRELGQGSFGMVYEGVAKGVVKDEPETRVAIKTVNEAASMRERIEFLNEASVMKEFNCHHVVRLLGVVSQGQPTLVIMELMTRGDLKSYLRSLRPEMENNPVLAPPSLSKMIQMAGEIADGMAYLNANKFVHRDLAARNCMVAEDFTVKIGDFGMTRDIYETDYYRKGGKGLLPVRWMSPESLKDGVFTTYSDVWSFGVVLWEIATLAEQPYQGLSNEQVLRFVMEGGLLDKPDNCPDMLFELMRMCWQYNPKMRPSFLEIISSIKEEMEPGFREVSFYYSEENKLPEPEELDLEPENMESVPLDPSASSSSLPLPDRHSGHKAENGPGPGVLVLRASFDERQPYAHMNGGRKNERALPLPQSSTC

[3] = target: ABL1(F317L)-phosphorylated (Homo sapiens, UniProt P00519, F317L); test: biochemical; settings: read-out: %Ctrl @ 2000nM
MEK4 = MEK4 (Homo sapiens, UniProt P45985); test: biochemical; settings: read-out: %Ctrl @ 2000nM
Chain of MEK4 (P45985 whole entry): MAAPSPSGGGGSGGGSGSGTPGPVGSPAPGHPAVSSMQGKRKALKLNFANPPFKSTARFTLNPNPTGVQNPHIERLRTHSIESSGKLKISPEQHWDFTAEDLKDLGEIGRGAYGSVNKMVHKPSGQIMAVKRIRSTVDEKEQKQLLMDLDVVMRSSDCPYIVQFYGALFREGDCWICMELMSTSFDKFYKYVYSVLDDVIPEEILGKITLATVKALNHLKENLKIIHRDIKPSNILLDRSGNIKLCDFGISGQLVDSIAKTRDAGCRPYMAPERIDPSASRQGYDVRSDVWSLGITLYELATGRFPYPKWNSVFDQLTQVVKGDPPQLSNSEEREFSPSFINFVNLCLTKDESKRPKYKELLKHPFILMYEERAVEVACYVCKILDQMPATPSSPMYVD

FGR = FGR (Homo sapiens, UniProt P09769); test: biochemical; settings: read-out: %Ctrl @ 2000nM
PIK3C2G = PIK3C2G (Homo sapiens, UniProt O75747); test: biochemical; settings: read-out: %Ctrl @ 2000nM
[4] = target: RPS6KA5(Kin.Dom.1-N-terminal) (Homo sapiens, UniProt O75582); test: biochemical; settings: read-out: %Ctrl @ 2000nM
ROCK2 = ROCK2 (Homo sapiens, UniProt O75116); test: biochemical; settings: read-out: %Ctrl @ 2000nM
ROCK1 = ROCK1 (Homo sapiens, UniProt Q13464); test: biochemical; settings: read-out: %Ctrl @ 2000nM
CLK3 = CLK3 (Homo sapiens, UniProt P49761); test: biochemical; settings: read-out: %Ctrl @ 2000nM
NEK9 = NEK9 (Homo sapiens, UniProt Q8TD19); test: biochemical; settings: read-out: %Ctrl @ 2000nM
ZAK = ZAK (Homo sapiens, UniProt Q9NYL2); test: biochemical; settings: read-out: %Ctrl @ 2000nM
RIOK3 = RIOK3 (Homo sapiens, UniProt O14730); test: biochemical; settings: read-out: %Ctrl @ 2000nM
DAPK2 = DAPK2 (Homo sapiens, UniProt Q9UIK4); test: biochemical; settings: read-out: %Ctrl @ 2000nM
EGFR(G719S) = EGFR(G719S) (Homo sapiens, UniProt P00533, G719S); test: biochemical; settings: read-out: %Ctrl @ 2000nM
CAMKK1 = CAMKK1 (Homo sapiens, UniProt Q8N5S9); test: biochemical; settings: read-out: %Ctrl @ 2000nM
786-O cells = settings: 48 h
IRAK1 = IRAK1 (Homo sapiens, UniProt P51617); test: biochemical; settings: read-out: %Ctrl @ 2000nM
EGFR(L861Q) = EGFR(L861Q) (Homo sapiens, UniProt P00533, L861Q); test: biochemical; settings: read-out: %Ctrl @ 2000nM
MAK = MAK (Homo sapiens, UniProt P20794); test: biochemical; settings: read-out: %Ctrl @ 2000nM
TGFBR1 = TGFBR1 (Homo sapiens, UniProt P36897); test: biochemical; settings: read-out: %Ctrl @ 2000nM
TTK = TTK (Homo sapiens, UniProt P33981); test: biochemical; settings: read-out: %Ctrl @ 2000nM
[5] = target: ABL1(H396P)-nonphosphorylated (Homo sapiens, UniProt P00519, H396P); test: biochemical; settings: read-out: %Ctrl @ 2000nM
RET(V804L) = RET(V804L) (Homo sapiens, UniProt P07949, V804L); test: biochemical; settings: read-out: %Ctrl @ 2000nM
Chain of RET(V804L) (P07949 29-1114 V804L): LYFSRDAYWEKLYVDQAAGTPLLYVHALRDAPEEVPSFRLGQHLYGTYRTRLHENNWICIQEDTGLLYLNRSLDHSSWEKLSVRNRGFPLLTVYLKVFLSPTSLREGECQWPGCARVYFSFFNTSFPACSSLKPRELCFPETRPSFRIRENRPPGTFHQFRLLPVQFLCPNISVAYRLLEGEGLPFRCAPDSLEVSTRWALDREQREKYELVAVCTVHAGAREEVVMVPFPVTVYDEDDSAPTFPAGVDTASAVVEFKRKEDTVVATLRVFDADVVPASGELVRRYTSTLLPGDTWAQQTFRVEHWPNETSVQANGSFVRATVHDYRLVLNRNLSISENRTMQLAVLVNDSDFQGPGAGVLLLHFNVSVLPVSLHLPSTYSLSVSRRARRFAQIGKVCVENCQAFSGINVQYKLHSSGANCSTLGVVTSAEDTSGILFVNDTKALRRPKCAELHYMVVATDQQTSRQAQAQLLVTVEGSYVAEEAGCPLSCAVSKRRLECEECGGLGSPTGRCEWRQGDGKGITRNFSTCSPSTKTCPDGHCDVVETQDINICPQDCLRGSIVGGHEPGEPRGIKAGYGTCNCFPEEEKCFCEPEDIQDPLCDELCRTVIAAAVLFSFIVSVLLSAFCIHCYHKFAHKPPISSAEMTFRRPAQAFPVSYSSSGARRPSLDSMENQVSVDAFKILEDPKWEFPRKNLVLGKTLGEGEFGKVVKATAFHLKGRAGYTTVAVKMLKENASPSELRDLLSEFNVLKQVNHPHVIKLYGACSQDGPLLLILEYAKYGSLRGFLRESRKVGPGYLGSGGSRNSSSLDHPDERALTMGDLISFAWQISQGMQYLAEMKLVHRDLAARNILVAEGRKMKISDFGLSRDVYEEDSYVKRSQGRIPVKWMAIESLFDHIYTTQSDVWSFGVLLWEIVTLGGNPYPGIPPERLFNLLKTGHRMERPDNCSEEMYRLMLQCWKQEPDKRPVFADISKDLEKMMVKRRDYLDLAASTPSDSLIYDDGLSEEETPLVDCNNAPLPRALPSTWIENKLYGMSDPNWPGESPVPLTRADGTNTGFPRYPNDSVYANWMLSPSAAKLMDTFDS

BRAF(V600E) = BRAF(V600E) (Homo sapiens, UniProt P15056, V600E); test: biochemical; settings: read-out: %Ctrl @ 2000nM
SYK = SYK (Homo sapiens, UniProt P43405); test: biochemical; settings: read-out: %Ctrl @ 2000nM
CAMK2D = CAMK2D (Homo sapiens, UniProt Q13557); test: biochemical; settings: read-out: %Ctrl @ 2000nM
KIT(V559D,T670I) = KIT(V559D,T670I) (Homo sapiens, UniProt P10721, T670I/V559D); test: biochemical; settings: read-out: %Ctrl @ 2000nM
MAP3K4 = MAP3K4 (Homo sapiens, UniProt Q9Y6R4); test: biochemical; settings: read-out: %Ctrl @ 2000nM

Chain of CDKL5 (O76039 whole entry): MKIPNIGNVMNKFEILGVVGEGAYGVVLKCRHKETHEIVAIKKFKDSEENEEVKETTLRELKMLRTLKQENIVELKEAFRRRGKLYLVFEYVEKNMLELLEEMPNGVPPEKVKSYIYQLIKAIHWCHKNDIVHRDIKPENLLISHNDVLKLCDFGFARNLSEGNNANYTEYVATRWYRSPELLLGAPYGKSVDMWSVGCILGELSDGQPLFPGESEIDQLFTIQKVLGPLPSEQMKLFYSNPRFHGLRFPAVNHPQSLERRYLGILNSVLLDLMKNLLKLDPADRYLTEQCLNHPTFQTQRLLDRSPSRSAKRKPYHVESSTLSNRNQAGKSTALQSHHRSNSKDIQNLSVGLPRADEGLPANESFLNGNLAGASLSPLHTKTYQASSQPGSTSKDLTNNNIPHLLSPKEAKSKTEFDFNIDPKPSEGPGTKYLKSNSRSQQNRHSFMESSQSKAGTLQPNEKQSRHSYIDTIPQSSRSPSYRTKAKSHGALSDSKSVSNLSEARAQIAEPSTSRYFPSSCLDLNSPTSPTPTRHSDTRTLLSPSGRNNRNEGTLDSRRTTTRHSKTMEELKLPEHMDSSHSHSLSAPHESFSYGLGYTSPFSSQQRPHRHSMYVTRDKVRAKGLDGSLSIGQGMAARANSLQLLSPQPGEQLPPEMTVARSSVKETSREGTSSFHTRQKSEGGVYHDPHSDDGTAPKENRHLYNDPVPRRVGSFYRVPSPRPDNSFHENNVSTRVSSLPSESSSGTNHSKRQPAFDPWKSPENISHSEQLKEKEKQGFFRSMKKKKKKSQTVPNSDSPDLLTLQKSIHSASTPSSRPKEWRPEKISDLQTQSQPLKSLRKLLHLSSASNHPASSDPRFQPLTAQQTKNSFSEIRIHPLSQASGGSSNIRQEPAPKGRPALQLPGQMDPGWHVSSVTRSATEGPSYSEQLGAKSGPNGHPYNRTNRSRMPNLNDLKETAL

SMILES: CC(C)COC(=O)c1[nH]c2ccc(F)cc2c1-c1cn(CC2CCN(CCNS(=O)(=O)c3ccc(CC(C)C)cc3)CC2)nn1 [AB668, isobutyl 5-fluoro-3-(1-((1-(2-((4-isobutylphenyl)sulfonamido)ethyl)piperidin-4-yl)methyl)-1H-1,2,3-triazol-4-yl)-1H-indole-2-carboxylate]
- remaining activity at 2 µM (PIK3CG): 90%
- remaining activity at 2 µM (NEK11): 100%
- remaining activity at 2 µM (CDKL5): 91%
- remaining activity at 2 µM [1]: 85%
- remaining activity at 2 µM (STK39): 90%
- remaining activity at 2 µM (CLK2): 98%
- remaining activity at 2 µM (BMPR2): 100%
- remaining activity at 2 µM (PIK3CA): 82%
- remaining activity at 2 µM [2]: 64%
- remaining activity at 2 µM (STK16): 82%
- remaining activity at 2 µM (EGFR(S752-I759del)): 80%
- remaining activity at 2 µM (GSK3B): 100%
- remaining activity at 2 µM (MRCKB): 90%
- remaining activity at 2 µM (IGF1R): 73%
- remaining activity at 2 µM [3]: 78%
- remaining activity at 2 µM (MEK4): 89%
- remaining activity at 2 µM (FGR): 72%
- remaining activity at 2 µM (PIK3C2G): 100%
- remaining activity at 2 µM [4]: 95%
- remaining activity at 2 µM (ROCK2): 83%
- remaining activity at 2 µM (ROCK1): 88%
- remaining activity at 2 µM (CLK3): 79%
- remaining activity at 2 µM (NEK9): 94%
- remaining activity at 2 µM (ZAK): 100%
- remaining activity at 2 µM (RIOK3): 97%
- remaining activity at 2 µM (DAPK2): 71%
- remaining activity at 2 µM (EGFR(G719S)): 68%
- remaining activity at 2 µM (CAMKK1): 88%
- proliferation, cell death and apoptosis (786-O cells; 4 μM): induced significant cell proliferation arrest associated with cell death and apoptosis
- renal cancer cell death, dose dependent (786-O cells; low concentration (<5μM)): more efficient than CX-4945 and SGC-CK2-1
- remaining activity at 2 µM (IRAK1): 98%
- remaining activity at 2 µM (EGFR(L861Q)): 79%
- remaining activity at 2 µM (MAK): 96%
- remaining activity at 2 µM (TGFBR1): 84%
- remaining activity at 2 µM (TTK): 85%
- remaining activity at 2 µM [5]: 97%
- remaining activity at 2 µM (RET(V804L)): 93%
- remaining activity at 2 µM (BRAF(V600E)): 100%
- remaining activity at 2 µM (SYK): 100%
- remaining activity at 2 µM (CAMK2D): 89%
- remaining activity at 2 µM (KIT(V559D,T670I)): 93%
- remaining activity at 2 µM (MAP3K4): 90%

From publication PMC10838953
